Experimental data reported in US20250326744A1, “PIPERAZINE DERIVATIVE OR SALT THEREOF, AND PHARMACEUTICAL COMPOSITION” (priority 2022, published 2025).
Where a name gives a salt, the structure may show the parent alone.

Tests used:
S-3769 strain = test: Combinational effect with antibacterial agent against Pseudomonas aeruginosa (Test Examples 2 and 4): S-3769 strain with AMK or GM at 1/4 MIC, EC99; format: cell-based; conditions: S-3769 strain, Test Example 4; for EC99, combinational effect with AMK, S-3769 strain: combined with AMK at 1/4 MIC; for EC99, combinational effect with GM, S-3769 strain: combined with GM at 1/4 MIC
Method in brief: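 P. aeruginosa S-3769 (clinical isolate, MexY overexpressed) grown 16–20 h in CAMHB, 10^4 to 5 CFU/well, with AMK or GM at ¼ MIC plus test compound 0–800 μM. Growth read as OD595; EC99 is the lowest compound concentration giving ≥99% growth inhibition.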

mexB (PA) strain = test: Combinational effect with antibacterial agent against Pseudomonas aeruginosa (Test Examples 2 and 4): mexB (PA) strain with LVFX, TC or AZT at 1/4 MIC, EC99; format: cell-based; conditions: mexB (PA) strain, Test Example 4; for EC99, combinational effect with AZT, mexB (PA): combined with AZT at 1/4 MIC; for EC99, combinational effect with LVFX, mexB (PA): combined with LVFX at 1/4 MIC; for EC99, combinational effect with TC, mexB (PA): combined with TC at 1/4 MIC
Method in brief: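 P. aeruginosa mexB (PA) strain, lacking MexCD-OprJ, MexEF-OprN and MexXY and overexpressing MexAB-OprM, grown 16–20 h in CAMHB (10^4–5 CFU/well) with LVFX, TC or AZT at ¼ MIC plus test compound at 0–800 μM. Growth read as OD595; EC99 is the lowest compound concentration giving ≥99% growth inhibition.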

Compound | EC99, combinational effect with AMK, S-3769 strain (S-3769 strain) | EC99, combinational effect with GM, S-3769 strain (S-3769 strain) | EC99, combinational effect with AZT, mexB (PA) (mexB (PA) strain) | EC99, combinational effect with LVFX, mexB (PA) (mexB (PA) strain) | EC99, combinational effect with TC, mexB (PA) (mexB (PA) strain)
N[C@@H](C(=O)N1CCN(Cc2c(F)cccc2N2CCCC2)CC1)C1CCN(CCc2cc(Cl)ccc2-c2ccccc2)CC1 [Example 517, Hydrobromide of (R)-2-amino-2-(1-(2-(4-chloro-[1,1-biphenyl]-2-yl)ethyl)piperidin-4-yl)-1-(4-(2-fluoro-6-(pyrrolidin-1-yl)benzyl)piperazin-1-yl)ethan-1-one] | B (25 μM<EC99≤100 μM) | B (25 μM<EC99≤100 μM) | B (25 μM<EC99≤100 μM) | C (100 μM<EC99) | B (25 μM<EC99≤100 μM)
Nc1nc2c(CN3CCN(C(=O)[C@H](N)C4CCN(CCc5cc(Cl)ccc5-c5ccccc5)CC4)CC3)cccc2s1 [Example 519, Hydrobromide of (R)-2-amino-1-(4-((2-aminobenzo[d]thiazol-4-yl)methyl)piperazin-1-yl)-2-(1-(2-(4-chloro-[1,1-biphenyl]-2-yl)ethyl)piperidin-4-yl)ethan-1-one] | B (25 μM<EC99≤100 μM) | B (25 μM<EC99≤100 μM) | C (100 μM<EC99) | C (100 μM<EC99) | B (25 μM<EC99≤100 μM)
N[C@@H](C(=O)N1CCN(Cc2ccccc2B(O)O)CC1)C1CCN(CCc2cc(Cl)ccc2-c2ccccc2)CC1 [Example 521, Hydrobromide of (R)-(2-((4-(2-amino-2-(1-(2-(4-chloro-[1,1-biphenyl]-2-yl)ethyl)piperidin-4-yl)acetyl)piperazin-1-yl)methyl)phenyl)boronic acid] | B (25 μM<EC99≤100 μM) | B (25 μM<EC99≤100 μM) | C (100 μM<EC99) | C (100 μM<EC99) | C (100 μM<EC99)
COc1cccc(SC)c1CN1CCN(C(=O)[C@H](N)C2CCN(CCc3cc(Cl)ccc3-c3ccccc3)CC2)CC1 [Example 522, Hydrobromide of (R)-2-amino-2-(1-(2-(4-chloro-[1,1-biphenyl]-2-yl)ethyl)piperidin-4-yl)-1-(4-(2-methoxy-6-(methylthio)benzyl)piperazin-1-yl)ethan-1-one] | A (12.5 μM<EC99≤25 μM) | B (25 μM<EC99≤100 μM) | B (25 μM<EC99≤100 μM) | A (12.5 μM<EC99≤25 μM) | B (25 μM<EC99≤100 μM)
N[C@@H](C(=O)N1CCN(CC2CCCCC2)CC1)C1CCN(CCc2cc(Cl)ccc2-c2ccccc2)CC1 [Example 526, Hydrobromide of (R)-2-amino-2-(1-(2-(4-chloro-[1,1-biphenyl]-2-yl)ethyl)piperidin-4-yl)-1-(4-(cyclohexylmethyl)piperazin-1-yl)ethan-1-one] | A (12.5 μM<EC99≤25 μM) | A (12.5 μM<EC99≤25 μM) | B (25 μM<EC99≤100 μM) | B (25 μM<EC99≤100 μM) | A (12.5 μM<EC99≤25 μM)
COc1cccc(NC(=O)C(C)(C)C)c1CN1CCN(C(=O)[C@H](N)C2CCN(CCc3cc(Cl)ccc3-c3ccccc3)CC2)CC1 [Example 527, Hydrobromide of (R)-N-(2-((4-(2-amino-2-(1-(2-(4-chloro-[1,1-biphenyl]-2-yl)ethyl)piperidin-4-yl)acetyl)piperazin-1-yl)methyl)-3-methoxyphenyl)pivalamide] | S (EC99≤12.5 μM) | S (EC99≤12.5 μM) | C (100 μM<EC99) | C (100 μM<EC99) | B (25 μM<EC99≤100 μM)
N[C@@H](C(=O)N1CCN(Cc2c(F)cccc2-c2c[nH]cn2)CC1)C1CCN(CCc2cc(Cl)ccc2-c2ccccc2)CC1 [Example 528, Hydrobromide of (R)-2-amino-2-(1-(2-(4-chloro-[1,1-biphenyl]-2-yl)ethyl)piperidin-4-yl)-1-(4-(2-fluoro-6-(1H-imidazol-4-yl)benzyl)piperazin-1-yl)ethan-1-one] | A (12.5 μM<EC99≤25 μM) | S (EC99≤12.5 μM) | B (25 μM<EC99≤100 μM) | A (12.5 μM<EC99≤25 μM) | A (12.5 μM<EC99≤25 μM)
N[C@@H](C(=O)N1CCN(Cc2ccccc2SC(F)(F)F)CC1)C1CCN(CCc2cc(Cl)ccc2-c2ccccc2)CC1 [Example 529, Hydrobromide of (R)-2-amino-2-(1-(2-(4-chloro-[1,1-biphenyl]-2-yl)ethyl)piperidin-4-yl)-1-(4-(2-((trifluoromethyl)thio)benzyl)piperazin-1-yl)ethan-1-one] | A (12.5 μM<EC99≤25 μM) | B (25 μM<EC99≤100 μM) | C (100 μM<EC99) | A (12.5 μM<EC99≤25 μM) | A (12.5 μM<EC99≤25 μM)
CSc1ccc(F)cc1CN1CCN(C(=O)[C@H](N)C2CCN(CCc3cc(Cl)ccc3-c3ccccc3)CC2)CC1 [Example 530, Hydrobromide of (R)-2-amino-2-(1-(2-(4-chloro-[1,1-biphenyl]-2-yl)ethyl)piperidin-4-yl)-1-(4-(5-fluoro-2-(methylthio)benzyl)piperazin-1-yl)ethan-1-one] | S (EC99≤12.5 μM) | A (12.5 μM<EC99≤25 μM) | B (25 μM<EC99≤100 μM) | S (EC99≤12.5 μM) | S (EC99≤12.5 μM)
CSc1sccc1CN1CCN(C(=O)[C@H](N)C2CCN(CCc3cc(Cl)ccc3-c3ccccc3)CC2)CC1 [Example 531, Hydrobromide of (R)-2-amino-2-(1-(2-(4-chloro-[1,1-biphenyl]-2-yl)ethyl)piperidin-4-yl)-1-(4-((2-(methylthio)thiophen-2-yl)methyl)piperazin-1-yl)ethan-1-one] | A (12.5 μM<EC99≤25 μM) | A (12.5 μM<EC99≤25 μM) | B (25 μM<EC99≤100 μM) | S (EC99≤12.5 μM) | A (12.5 μM<EC99≤25 μM)
CSc1cccc(Cl)c1CN1CCN(C(=O)[C@H](N)C2CCN(CCc3cc(Cl)ccc3-c3ccccc3)CC2)CC1 [Example 532, Hydrobromide of (R)-2-amino-1-(4-(2-chloro-6-(methylthio)benzyl)piperazin-1-yl)-2-(1-(2-(4-chloro-[1,1-biphenyl]-2-yl)ethyl)piperidin-4-yl)ethan-1-one] | B (25 μM<EC99≤100 μM) | B (25 μM<EC99≤100 μM) | B (25 μM<EC99≤100 μM) | B (25 μM<EC99≤100 μM) | B (25 μM<EC99≤100 μM)
N[C@@H](C(=O)N1CCN(Cc2cccc3cccnc23)CC1)C1CCN(CCc2cc(Cl)ccc2-c2ccccc2)CC1 [Example 533, Hydrobromide of (R)-2-amino-2-(1-(2-(4-chloro-[1,1-biphenyl]-2-yl)ethyl)piperidin-4-yl)-1-(4-(quinolin-8-ylmethyl)piperazin-1-yl)ethan-1-one] | A (12.5 μM<EC99≤25 μM) | A (12.5 μM<EC99≤25 μM) | B (25 μM<EC99≤100 μM) | A (12.5 μM<EC99≤25 μM) | A (12.5 μM<EC99≤25 μM)
CCSc1ncccc1CN1CCN(C(=O)[C@H](N)C2CCN(CCc3cc(Cl)ccc3-c3ccccc3)CC2)CC1 [Example 535, Hydrobromide of (R)-2-amino-2-(1-(2-(4-chloro-[1,1-biphenyl]-2-yl)ethyl)piperidin-4-yl)-1-(4-((2-(ethylthio)pyridin-3-yl)methyl)piperazin-1-yl)ethan-1-one] | B (25 μM<EC99≤100 μM) | B (25 μM<EC99≤100 μM) | B (25 μM<EC99≤100 μM) | A (12.5 μM<EC99≤25 μM) | B (25 μM<EC99≤100 μM)
CSc1cccnc1CN1CCN(C(=O)[C@H](N)C2CCN(CCc3cc(Cl)ccc3-c3ccccc3)CC2)CC1 [Example 536, Hydrobromide of (R)-2-amino-2-(1-(2-(4-chloro-[1,1-biphenyl]-2-yl)ethyl)piperidin-4-yl)-1-(4-((3-(methylthio)pyridin-2-yl)methyl)piperazin-1-yl)ethan-1-one] | B (25 μM<EC99≤100 μM) | B (25 μM<EC99≤100 μM) | A (12.5 μM<EC99≤25 μM) | A (12.5 μM<EC99≤25 μM) | B (25 μM<EC99≤100 μM)
